Measured values taken from US10449230B2, “Polymyxin derived cell penetrating scaffolds” (The Regents of the University of California, priority 2016, dated 2019).
Numbered stars: 1 amine (or outer) side, 2 acyl side, 3 side chain; on linkers, the order of the positions; unused ones are H or OH. Bridge positions count the residues as written; N and C are the ends. Square brackets hold non-standard residues; d marks the D form. Peptide text beside a SMILES is read from it. * marks the point of attachment. Biotin = O=C1N[C@H]2[C@H](CS[C@H]2CCCCC(=O)*)N1; X1 = O=C(CCCc1cn(CCOCCOCCOCCN[*:1])nn1)[*:2]; Agb = N=C(N)NCC[C@H](N)C(=O)O; Dab = NCC[C@H](N)C(=O)O

How the values were obtained:
CHO-K1 cells [1] = conditions: CHO-K1, 72 h, concentrations as high as 0.5 μM, FIG. 3A
Protocol: (§1) Cell titer blue was added and incubated an additional 4 hours. Cell viability was calculated by measuring the fluorescence intensity at 560/590.

HEK-293 cells = conditions: HEK-293, 72 h, concentrations as high as 0.5 μM, FIG. 3B
Protocol: as §1

CHO-K1 cells [2] = experiment: Cytoplasmic delivery of streptavidin-saporin, CellTiter-Blue viability; format: cell-based, Chinese hamster; conditions: CHO-K1, four days at 37° C., FIG. 8
Protocol: The biotinylated transporters were incubated with ST-Sap in a 5:1 molar ratio for 20 min at ambient temperature then diluted with F-12 cell culture medium to give final conjugate solutions. CHO-K1 and pgsA cells were incubated with 100 μL of the corresponding conjugate for 4 days at 37° C. under an atmosphere of 5% CO2. CellTiter-Blue (20 μL) was added to the medium and incubated for an additional 4 h to measure viability.
The ability of bPMB and bGPMB to deliver cargo to the cytosol was evaluated by conjugating the transporter to streptavidin-saporin (ST-SAP) and incubating the conjugate with CHO-K1 or pgsA cells at various concentrations. CHO-K1 cells were incubated with transporter-streptavidin-saporin conjugates at 37° C.
Saporin (no streptavidin) was incubated with bPMB or bGPMB for 20 min then diluted to final saporin concentrations and added to CHO-K1 cells. After four days, the number of viable cells was determined using CellTiter-Blue assay and the fluorescence intensity at was measured at 560/590 (FIG. 9A). pgsA cells were incubated with transporter-streptavidin-saporin conjugates at 37° C. After four days, the number of viable cells was determined using CellTiter-Blue and fluorescence intensity was measured at 560/590 (FIG. 9B).

CHO-K1 cells [3] = experiment: Cellular uptake of transporter-ST-PE-Cy5 conjugates, flow cytometry (MFI); format: cell-based, Chinese hamster; conditions: for Uptake of ST-PE-Cy5 incubated with transporter lacking the biotin moiety: CHO-K1, 37° C., 1 h, FIG. 4
Protocol: The polymyxin derivatives (2.5 μM in PBS) were incubated with ST-PE-Cy5 (0.5 μM in PBS) for 20 min at ambient temperature then diluted with F-12 cell culture medium to give final conjugate solutions.
Cells were plated onto 24-well plates (100 000 cells/well) and grown for 24 h to about 80% confluence. Cells were washed with PBS and incubated with 300 μL of the corresponding conjugate for 1 h at 37° C. under an atmosphere of 5% CO2. Cells were washed twice with PBS, detached with 50 μL of trypsin-EDTA for uptake studies or 100 μL Versene (EDTA) for binding studies, diluted with PBS containing 0.1% BSA, and analyzed by FACS. Cellular uptake was quantified by the mean fluorescence intensity; raw data was interpreted by using FlowJo v8.8.6.
Wild type CHO-K1 cells were incubated with the carrier-ST-PE-Cy5 conjugate for 1 h at 37° C., detached with trypsin/EDTA, and analyzed by flow cytometry (see, e.g., H. O'Dowd, B. Kim, P. Margolis, W. Wang, C. Wu, S. L. Lopez and J. Blais, Tetrahedron Lett., 2007, 48, 2003-2005). […] Cellular uptake of GPMB and PMB conjugated to ST-PE-Cy5 was measured in CHO-K1, HEK-293, and HEP-3B cells. The cells were incubated with conjugate (5 nM) at 37° C. for 1 h. Mean fluorescence intensity was measured by flow cytometry. The background signal from untreated cells was subtracted (FIG. 2).
The mixtures were then added to CHO-K1 cells and incubated at 37° C. for 1 h. Mean fluorescence intensity was measured by flow cytometry and the background signal from untreated cells was subtracted.

CHO-K1 cells [4] = conditions: liposomes with 10 mol % carrier, 0.30, 0.50 or 0.70 μg/mL, 1 h at 37° C., FIG. 10
Protocol: A mixture (30 mg total) of DOPC, DOPE, and cholesterol (73:11:16) was dissolved in chloroform to a final volume of 1 mL and evaporated in a round flask and further dried under high vacuum overnight to form a thin lipid layer. The resulting film was hydrated for 15 min at 37° C. with 1 mL of PBS containing 100 μM Cy5. The mixture was sonicated for 30 s, subjected to six freeze/thaw cycles using a dry ice/acetone bath and a water bath at 37° C. Lastly, the suspension was extruded 17 times through a polycarbonate membrane (pore size 100 nm) at room temperature. Non-encapsulated dye was removed by gravitational gel filtration (Sephadex G-50). Lipid concentration was determined adapting the Stewart method. […] Unincorporated PMB or GPMB was removed via centrifuge gel filtration (Sephadex G-50) (see, e.g., D. W. Fry, J. C. White and I. D. Goldman, Anal. Biochem., 1978, 90, 809-815).
To examine the significance of the cyclic peptide as a delivery module, rather than the lipophilic tail, and the versatility of PMB and GPMB as transporters, liposomes containing the fluorescent Cy5 dye were mixed with 10 mol % PMB or GPMB. Uptake was evaluated using flow cytometry and the size and zeta potential of the liposomes were measured using dynamic light scattering (DLS) and are shown in Table 1 below. […]

Molecule	Cytotoxicity (Cell-Titer Blue) (CHO-K1 cells [1])	Cytotoxicity (Cell-Titer Blue) (HEK-293 cells)	Uptake of ST-PE-Cy5 incubated with transporter lacking the biotin moiety (CHO-K1 cells [3])	Delivery of cargo containing liposomes into wild-type CHO cells (CHO-K1 cells [4])	other results
CC(C)C[C@@H]1NC(=O)[C@@H](Cc2ccccc2)NC(=O)[C@H](CCNC(=N)N)NC(=O)[C@@H](NC(=O)[C@H](CCNC(=N)N)NC(=O)[C@@H](NC(=O)[C@H](CCNC(=N)N)NC(=O)CCCc2cn(CCOCCOCCOCCNC(=O)CCCC[C@@H]3SC[C@@H]4NC(=O)N[C@@H]43)nn2)[C@@H](C)O)CCNC(=O)[C@H]([C@@H](C)O)NC(=O)[C@H](CCNC(=N)N)NC(=O)[C@H](CCNC(=N)N)NC1=O [bGPMB, biotinylated guanidinylated polymyxin B] (Biotin-[X1][Agb]T[Agb][Dab][Agb][dF]L[Agb][Agb]T; lactam 5-C)	no cytotoxicity	no cytotoxicity	–	–	–
CC(C)C[C@@H]1NC(=O)[C@@H](Cc2ccccc2)NC(=O)[C@H](CCN)NC(=O)[C@@H](NC(=O)[C@H](CCN)NC(=O)[C@@H](NC(=O)[C@H](CCN)NC(=O)CCCc2cn(CCOCCOCCOCCNC(=O)CCCC[C@@H]3SC[C@@H]4NC(=O)N[C@@H]43)nn2)[C@@H](C)O)CCNC(=O)[C@H]([C@@H](C)O)NC(=O)[C@H](CCN)NC(=O)[C@H](CCN)NC1=O [bPMB, biotinylated polymyxin B] (Biotin-[X1][Dab]T[Dab][Dab][Dab][dF]L[Dab][Dab]T; lactam 5-C)	no cytotoxicity	no cytotoxicity	–	–	–
Octaarginine [bArg8]	–	–	–	–	LD50 of transporter-streptavidin-saporin conjugate (CHO-K1 cells [2]): 3.1 nM; Cellular uptake of ST-PE-Cy5 conjugate compared with bPMB and bGPMB (CHO-K1 cells [3]; CHO-K1, 1 h at 37° C., MFI, FIG. 1A): approximately three-fold higher uptake
Polymyxin B [PMB, reference compound]	–	–	No enhanced uptake	enhance delivery	–
guanidinylated polymyxin B [GPMB]	–	–	No enhanced uptake	enhance delivery	–
